Experimental findings from ChEMBL document CHEMBL4800727 (2021) are described below.

The target in test [1] is Beta-3 adrenergic receptor (Homo sapiens) (UniProt P13945). To be noted: Compound concentration 10.0 uM.
Test [2] addresses D(2) dopamine receptor (Homo sapiens) (UniProt P14416). The following applies: Compound concentration 10.0 uM.
The target in test [3] is Mitogen-activated protein kinase kinase kinase 9 (Homo sapiens) (UniProt P80192). In words: mitogen-activated protein kinase kinase kinase 9 Millipore kinase panel. The following applies: Compound concentration 10.0 uM.
The target of test [4] is C-C chemokine receptor type 1 (Homo sapiens) (UniProt P32246). Put plainly: hCCR1 Cerep panel. The following applies: Compound concentration 10.0 uM.
Test [5] deals with Proto-oncogene tyrosine-protein kinase receptor Ret (Homo sapiens) (UniProt P07949). In words: ret proto-oncogene Millipore kinase panel. The following applies: Compound concentration 10.0 uM.
For test [6], the target named is Protein kinase C gamma type (Homo sapiens) (UniProt P05129). Put plainly: protein kinase C, gamma Millipore kinase panel. The following applies: Compound concentration 10.0 uM.
Test [7] has as its target High affinity 3',5'-cyclic-AMP phosphodiesterase 7A (Homo sapiens, UniProt Q13946). In words: hPDE7A1 PDE scan.
Test [8] deals with Tyrosine-protein kinase Tec (Homo sapiens) (UniProt P42680). Put plainly: tec protein tyrosine kinase (activated) Millipore kinase panel. To be noted: Compound concentration 10.0 uM.
For test [9], the target named is Substance-P receptor (Homo sapiens) (UniProt P25103). In words: hNK1 Cerep panel. The following applies: Compound concentration 10.0 uM.
In test [10] the target is Dual specificity mitogen-activated protein kinase kinase 6 (Homo sapiens) (UniProt P52564). In words: mitogen-activated protein kinase kinase 6 Millipore kinase panel. To be noted: Compound concentration 10.0 uM.
Test [11] has as its target Protein kinase C delta type (Homo sapiens) (UniProt Q05655). In words: protein kinase C, delta Millipore kinase panel. To be noted: Compound concentration 10.0 uM.
The target of test [12] is Serine/threonine-protein kinase Sgk1 (Homo sapiens) (UniProt O00141). In words: serum/glucocorticoid regulated kinase 1 Millipore kinase panel. To be noted: Compound concentration 10.0 uM.
For test [13], the target named is Muscle, skeletal receptor tyrosine-protein kinase (Homo sapiens) (UniProt O15146). In words: muscle, skeletal, receptor tyrosine kinase Millipore kinase panel. The following applies: Compound concentration 10.0 uM.
Test [14] has as its target Prostaglandin G/H synthase 2 (Homo sapiens) (UniProt P35354). In words: hCOX2 Cerep panel. The following applies: Compound concentration 10.0 uM.
For test [15], the target named is 5-hydroxytryptamine receptor 2B (Homo sapiens, UniProt P41595). Put plainly: GPCRScan assay: inhibition of 5-HT2B. The arrangement: radioligand conc. used [nm] 1.0 – 2.0, parental cells stable HEK.
Test [16] addresses RAC-alpha serine/threonine-protein kinase (Homo sapiens) (UniProt P31749). Put plainly: v-akt murine thymoma viral oncogene homolog 1 Millipore kinase panel. The following applies: Compound concentration 10.0 uM.
For test [17], the target named is Tyrosine-protein kinase HCK (Homo sapiens) (UniProt P08631). In words: hemopoietic cell kinase (activated) Millipore kinase panel. The following applies: Compound concentration 10.0 uM.
For test [18], the target named is Tyrosine-protein kinase Fgr (Homo sapiens) (UniProt P09769). In words: Gardner-Rasheed feline sarcoma viral (v-fgr) oncogene homolog Millipore kinase panel. To be noted: Compound concentration 10.0 uM.
In test [19] the target is Galanin receptor type 2 (Homo sapiens) (UniProt O43603). In words: hGAL2 Cerep panel. To be noted: Compound concentration 10.0 uM.
In test [20] the target is Sodium-dependent dopamine transporter (Homo sapiens, UniProt Q01959). In words: hDAT Cerep panel. To be noted: Compound concentration 10.0 uM.
The target of test [21] is Protein kinase C eta type (Homo sapiens) (UniProt P24723). In words: protein kinase C, eta Millipore kinase panel. To be noted: Compound concentration 10.0 uM.
In test [22] the target is Adenosine receptor A3 (Homo sapiens) (UniProt P0DMS8). Put plainly: hA3 Cerep panel. To be noted: Compound concentration 10.0 uM.
Test [23] concerns the target RAF proto-oncogene serine/threonine-protein kinase (Homo sapiens) (UniProt P04049). Put plainly: v-raf-1 murine leukemia viral oncogene homolog 1 Millipore kinase panel. To be noted: Compound concentration 10.0 uM.
The target in test [24] is Ribosomal protein S6 kinase alpha-4 (Homo sapiens) (UniProt O75676). In words: ribosomal protein S6 kinase, 90kDa, polypeptide 4 Millipore kinase panel. The following applies: Compound concentration 10.0 uM.
A short description of test [25]: PPAR1C Cerep panel. The following applies: Compound concentration 10.0 uM.
Test [26] deals with Adenosine receptor A1 (Homo sapiens) (UniProt P30542). In words: hA1 Cerep panel. To be noted: Compound concentration 10.0 uM.
The target of test [27] is Serine/threonine-protein kinase pim-1 (Homo sapiens) (UniProt P11309). In words: pim-1 oncogene Millipore kinase panel. To be noted: Compound concentration 10.0 uM.
The target in test [28] is Serine/threonine-protein kinase NLK (Homo sapiens) (UniProt Q9UBE8). In words: nemo-like kinase Millipore kinase panel. The following applies: Compound concentration 10.0 uM.
Test [29] deals with Serine/threonine-protein kinase PLK1 (Homo sapiens) (UniProt P53350). In words: polo-like kinase 1 Millipore kinase panel. To be noted: Compound concentration 10.0 uM.
Test [30] concerns the target Substance-K receptor (Homo sapiens) (UniProt P21452). Put plainly: hNK2 Cerep panel. To be noted: Compound concentration 10.0 uM.
For test [31], the target named is Kappa-type opioid receptor (Rattus norvegicus) (UniProt P34975). Put plainly: rOP2 Cerep panel. The following applies: Compound concentration 10.0 uM.
The next test is filed under the species Homo sapiens. In words: protein kinase C, beta 2 Millipore kinase panel. The following applies: Compound concentration 10.0 uM.
In test [32] the target is Mitogen-activated protein kinase 13 (Homo sapiens) (UniProt O15264). Put plainly: mitogen-activated protein kinase 13 Millipore kinase panel. To be noted: Compound concentration 10.0 uM.
The target in test [33] is Dual specificity calcium/calmodulin-dependent 3',5'-cyclic nucleotide phosphodiesterase 1B (Homo sapiens, UniProt Q01064). In words: hPDE1B1 PDE scan.
Test [34] addresses 5-hydroxytryptamine receptor 7 (Homo sapiens, UniProt P34969). Put plainly: h5HT7 Cerep panel. The following applies: Compound concentration 10.0 uM.
The target in test [35] is Prostacyclin receptor (Homo sapiens) (UniProt P43119). In words: hIP1 Cerep panel. The following applies: Compound concentration 10.0 uM.
Test [36] has as its target Cyclin-dependent kinase 1/cyclin B (Homo sapiens) (UniProt P06493+P14635+Q8WWL7+O95067). In words: cyclin-dependent kinase 1 / clyclinB Millipore kinase panel. In kind it is protein-complex assay. To be noted: Compound concentration 10.0 uM.
The target of test [37] is High affinity nerve growth factor receptor (Homo sapiens) (UniProt P04629). In words: neurotrophic tyrosine kinase, receptor, type 1 Millipore kinase panel. The following applies: Compound concentration 10.0 uM.
In test [38] the target is Ribosomal protein S6 kinase alpha-1 (Homo sapiens) (UniProt Q15418). In words: ribosomal protein S6 kinase, 90kDa, polypeptide 1 Millipore kinase panel. The following applies: Compound concentration 10.0 uM.
For test [39], the target named is Ephrin type-A receptor 4 (Homo sapiens) (UniProt P54764). In words: EPH receptor A4 Millipore kinase panel. The following applies: Compound concentration 10.0 uM.
Test [40] has as its target T1, 5-hydroxytryptamine receptor 3A (Homo sapiens) (UniProt P46098).
T1 sequence (whole entry): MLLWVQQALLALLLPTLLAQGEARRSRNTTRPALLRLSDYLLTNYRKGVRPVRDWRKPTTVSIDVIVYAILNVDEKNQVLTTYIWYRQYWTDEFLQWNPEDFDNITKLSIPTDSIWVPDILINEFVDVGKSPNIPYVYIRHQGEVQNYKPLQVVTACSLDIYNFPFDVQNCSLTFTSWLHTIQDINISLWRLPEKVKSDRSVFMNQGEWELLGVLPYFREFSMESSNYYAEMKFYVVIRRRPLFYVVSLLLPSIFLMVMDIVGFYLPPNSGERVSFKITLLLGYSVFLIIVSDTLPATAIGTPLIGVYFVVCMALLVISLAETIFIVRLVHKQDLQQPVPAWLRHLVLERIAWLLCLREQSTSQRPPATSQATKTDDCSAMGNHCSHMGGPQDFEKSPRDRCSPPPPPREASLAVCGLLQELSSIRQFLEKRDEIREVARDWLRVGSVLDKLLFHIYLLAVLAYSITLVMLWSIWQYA
In words: h5HT3 Cerep panel. The following applies: Compound concentration 10.0 uM.

Test [41] deals with CDK6/cyclin D3 (Homo sapiens) (UniProt P30281+Q00534). Put plainly: cyclin-dependent kinase 6 / cyclinD3 Millipore kinase panel. In kind it is protein-complex assay. The following applies: Compound concentration 10.0 uM.
Test [42] addresses cAMP-dependent protein kinase catalytic subunit PRKX (Homo sapiens) (UniProt P51817). Put plainly: protein kinase, X-linked Millipore kinase panel. The following applies: Compound concentration 10.0 uM.
Test [43] addresses Cannabinoid receptor 1 (Homo sapiens) (UniProt P21554). Put plainly: hCB1 Cerep panel. To be noted: Compound concentration 10.0 uM.

5-hydroxytryptamine receptor 2B, sequence (P41595 whole entry): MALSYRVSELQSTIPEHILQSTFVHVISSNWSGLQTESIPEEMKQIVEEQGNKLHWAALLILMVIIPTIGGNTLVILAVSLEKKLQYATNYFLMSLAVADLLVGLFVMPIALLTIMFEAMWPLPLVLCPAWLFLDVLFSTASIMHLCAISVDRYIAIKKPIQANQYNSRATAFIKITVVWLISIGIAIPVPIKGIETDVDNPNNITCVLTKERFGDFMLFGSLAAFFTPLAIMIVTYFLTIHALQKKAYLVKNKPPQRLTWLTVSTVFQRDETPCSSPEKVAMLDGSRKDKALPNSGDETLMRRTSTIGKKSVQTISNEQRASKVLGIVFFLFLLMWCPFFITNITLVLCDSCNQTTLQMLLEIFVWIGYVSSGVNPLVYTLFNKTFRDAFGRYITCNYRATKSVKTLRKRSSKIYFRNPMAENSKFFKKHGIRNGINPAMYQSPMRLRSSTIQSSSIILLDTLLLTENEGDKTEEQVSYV
Protein kinase C eta type (Homo sapiens), sequence (P24723 whole entry): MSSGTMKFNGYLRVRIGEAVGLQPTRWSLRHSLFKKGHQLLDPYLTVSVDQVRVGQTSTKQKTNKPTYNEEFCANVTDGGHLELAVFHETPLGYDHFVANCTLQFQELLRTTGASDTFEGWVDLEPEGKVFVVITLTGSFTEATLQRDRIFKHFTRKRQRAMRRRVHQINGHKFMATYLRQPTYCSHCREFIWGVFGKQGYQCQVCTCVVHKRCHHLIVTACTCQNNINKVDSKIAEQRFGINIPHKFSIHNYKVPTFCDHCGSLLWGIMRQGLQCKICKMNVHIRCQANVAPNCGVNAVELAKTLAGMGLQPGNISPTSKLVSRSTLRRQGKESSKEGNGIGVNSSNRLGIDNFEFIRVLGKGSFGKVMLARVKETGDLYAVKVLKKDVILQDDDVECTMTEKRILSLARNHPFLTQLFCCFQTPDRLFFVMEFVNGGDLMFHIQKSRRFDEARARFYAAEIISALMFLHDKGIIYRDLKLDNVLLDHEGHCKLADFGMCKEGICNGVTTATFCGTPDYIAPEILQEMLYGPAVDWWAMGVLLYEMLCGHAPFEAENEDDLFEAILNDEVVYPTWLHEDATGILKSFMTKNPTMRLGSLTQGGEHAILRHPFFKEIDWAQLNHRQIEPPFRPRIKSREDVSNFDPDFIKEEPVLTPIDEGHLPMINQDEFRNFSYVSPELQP
Dual specificity mitogen-activated protein kinase kinase 6 (Homo sapiens), sequence (P52564 whole entry): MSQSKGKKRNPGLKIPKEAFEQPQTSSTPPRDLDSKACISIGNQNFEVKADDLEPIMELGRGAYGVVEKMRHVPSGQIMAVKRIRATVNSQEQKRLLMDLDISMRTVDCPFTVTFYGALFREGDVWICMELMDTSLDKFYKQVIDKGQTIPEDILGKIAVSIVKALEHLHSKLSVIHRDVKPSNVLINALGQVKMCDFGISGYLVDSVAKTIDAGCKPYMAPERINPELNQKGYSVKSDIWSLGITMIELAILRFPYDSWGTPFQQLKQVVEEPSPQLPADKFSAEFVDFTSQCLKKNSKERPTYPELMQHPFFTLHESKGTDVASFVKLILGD
Mitogen-activated protein kinase 13 (Homo sapiens), sequence (O15264 whole entry): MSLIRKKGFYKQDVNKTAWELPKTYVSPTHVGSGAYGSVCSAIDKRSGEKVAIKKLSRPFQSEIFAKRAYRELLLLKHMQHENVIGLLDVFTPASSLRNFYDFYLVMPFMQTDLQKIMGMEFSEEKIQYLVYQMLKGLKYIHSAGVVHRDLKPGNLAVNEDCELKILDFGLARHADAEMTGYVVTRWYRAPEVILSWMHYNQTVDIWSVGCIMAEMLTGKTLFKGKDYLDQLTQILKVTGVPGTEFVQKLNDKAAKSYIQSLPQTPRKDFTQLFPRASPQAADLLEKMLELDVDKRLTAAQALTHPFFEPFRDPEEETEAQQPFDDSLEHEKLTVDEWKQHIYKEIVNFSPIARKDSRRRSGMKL
Adenosine receptor A3 (Homo sapiens), sequence (P0DMS8 whole entry): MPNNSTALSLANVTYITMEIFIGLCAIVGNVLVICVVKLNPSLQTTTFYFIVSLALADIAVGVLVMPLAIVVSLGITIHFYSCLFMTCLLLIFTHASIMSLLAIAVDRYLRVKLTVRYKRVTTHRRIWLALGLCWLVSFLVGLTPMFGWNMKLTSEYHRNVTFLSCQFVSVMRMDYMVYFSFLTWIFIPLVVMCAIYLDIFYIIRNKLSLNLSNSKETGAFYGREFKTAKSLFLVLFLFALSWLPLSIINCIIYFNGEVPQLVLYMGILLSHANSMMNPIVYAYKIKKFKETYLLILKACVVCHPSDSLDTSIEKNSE
Sodium-dependent dopamine transporter, sequence (Q01959 whole entry): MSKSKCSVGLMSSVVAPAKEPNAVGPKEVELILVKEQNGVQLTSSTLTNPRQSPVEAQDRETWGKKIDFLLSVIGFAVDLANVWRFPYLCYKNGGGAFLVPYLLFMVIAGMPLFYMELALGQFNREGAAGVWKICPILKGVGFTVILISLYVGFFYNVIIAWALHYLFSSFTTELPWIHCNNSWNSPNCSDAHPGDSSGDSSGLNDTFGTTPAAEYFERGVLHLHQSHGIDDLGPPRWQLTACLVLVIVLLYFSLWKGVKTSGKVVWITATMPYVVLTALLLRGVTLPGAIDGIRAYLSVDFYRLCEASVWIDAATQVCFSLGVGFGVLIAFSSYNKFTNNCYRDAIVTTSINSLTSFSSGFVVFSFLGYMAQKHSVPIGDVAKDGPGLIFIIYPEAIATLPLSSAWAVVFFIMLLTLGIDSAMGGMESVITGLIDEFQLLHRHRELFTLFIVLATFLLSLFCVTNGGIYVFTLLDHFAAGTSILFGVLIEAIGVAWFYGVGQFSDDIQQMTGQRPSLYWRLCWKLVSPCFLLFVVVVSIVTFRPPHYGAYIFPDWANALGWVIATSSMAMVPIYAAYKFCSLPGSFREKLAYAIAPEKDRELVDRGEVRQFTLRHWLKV
Dual specificity calcium/calmodulin-dependent 3',5'-cyclic nucleotide phosphodiesterase 1B, sequence (Q01064 whole entry): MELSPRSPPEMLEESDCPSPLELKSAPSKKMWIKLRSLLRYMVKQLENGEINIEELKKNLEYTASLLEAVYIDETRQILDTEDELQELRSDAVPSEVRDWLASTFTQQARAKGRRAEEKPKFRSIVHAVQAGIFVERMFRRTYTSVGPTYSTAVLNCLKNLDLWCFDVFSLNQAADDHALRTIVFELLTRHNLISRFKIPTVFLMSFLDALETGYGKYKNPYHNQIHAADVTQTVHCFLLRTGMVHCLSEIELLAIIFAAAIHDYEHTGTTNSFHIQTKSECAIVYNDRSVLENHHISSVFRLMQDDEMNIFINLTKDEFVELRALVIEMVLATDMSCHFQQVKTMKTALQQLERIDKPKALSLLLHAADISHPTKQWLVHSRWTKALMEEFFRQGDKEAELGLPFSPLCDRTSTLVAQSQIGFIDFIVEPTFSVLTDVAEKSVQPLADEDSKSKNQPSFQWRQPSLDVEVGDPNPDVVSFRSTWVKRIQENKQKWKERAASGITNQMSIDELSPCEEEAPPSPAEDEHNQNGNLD
5-hydroxytryptamine receptor 7, sequence (P34969 whole entry): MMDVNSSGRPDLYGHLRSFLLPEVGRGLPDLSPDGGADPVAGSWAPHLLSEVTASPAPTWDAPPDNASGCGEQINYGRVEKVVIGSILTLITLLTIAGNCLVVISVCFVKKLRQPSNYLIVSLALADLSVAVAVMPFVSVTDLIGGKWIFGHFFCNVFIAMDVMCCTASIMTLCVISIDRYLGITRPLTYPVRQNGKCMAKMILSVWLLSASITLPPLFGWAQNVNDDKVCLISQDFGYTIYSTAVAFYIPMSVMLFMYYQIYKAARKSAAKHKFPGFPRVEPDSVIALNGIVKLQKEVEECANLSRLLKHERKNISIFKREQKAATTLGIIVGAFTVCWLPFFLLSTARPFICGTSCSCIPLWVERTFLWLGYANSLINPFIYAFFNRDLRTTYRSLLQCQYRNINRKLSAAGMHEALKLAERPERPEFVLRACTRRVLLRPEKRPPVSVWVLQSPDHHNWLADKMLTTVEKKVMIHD
Adenosine receptor A1 (Homo sapiens), sequence (P30542 whole entry): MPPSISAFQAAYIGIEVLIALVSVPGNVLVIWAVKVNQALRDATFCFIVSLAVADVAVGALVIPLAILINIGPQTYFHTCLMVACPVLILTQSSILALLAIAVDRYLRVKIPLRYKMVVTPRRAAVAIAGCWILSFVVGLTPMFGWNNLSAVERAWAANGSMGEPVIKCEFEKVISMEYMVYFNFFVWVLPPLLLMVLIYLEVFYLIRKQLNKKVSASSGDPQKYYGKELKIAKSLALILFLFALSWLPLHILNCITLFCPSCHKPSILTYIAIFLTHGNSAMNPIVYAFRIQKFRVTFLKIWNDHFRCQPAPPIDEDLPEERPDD

Broadly, the inhibition is the drop in the measured response relative to a control, in per cent. With `c1ccc(C2CCN(c3cnc4c(N5CCOCC5)nccn34)CC2)cc1`, the values for the inhibition in test [1] and in [2] were 2.32% and 1.22%, respectively.
In the case of `COCCc1ccc(-c2c(C)nc3c(N4CCOCC4)ccnn23)cn1` [JNJ-42396302], the inhibition in [3] was 5%; in test [5], 5%; in [6] it was -4%; in test [8] it was 7%; in test [10] it was -5%; in test [11] it was -2%. Further, the inhibition in test [12] was -3%; in test [13] it was -6%; in [16], 35%; in test [17], -3%; in test [18], 7%; in test [21], -2%. The inhibition is 10% in [23]; 2% in [24]; 10% in test [27]; 2% in test [28]; 0% in test [29]; 3% in the test filed under Homo sapiens. Moreover, the inhibition in test [32] is 4%; in test [36] it was 5%; in test [37], 7%; in test [38], 9%; in test [39] it was 2%; in [41], 0%. Further, the inhibition in test [42] was 4%. The effect in test [4] is -7.45%; in test [9], 3.05%; in [14], 13.4%; in [19] it was 6.7%; in [20], 4.5%; in [22], 8.4%. Besides, the effect in test [25] is -2.05%; in [26], 11.3%; in test [30], 9.7%; in [31] it was 1.7%; in test [34], 8.6%; in test [35], -23.4%. In addition, the effect is 3.35% in [40] and 4.05% in [43]. Further, the Ki is 23 µM in test [7], 2.29 µM in test [15] (read-out: Ki), 2.24 µM in test [15] (read-out: pKi (converted)) and 3.4 µM in [33].
